Results published in ChEMBL document CHEMBL4706710, “Synthesis and evaluation of novel thiosemicarbazone and semicarbazone analogs with both anti-proliferative and anti-metastatic activities against triple negative breast cancer” (Bioorg Med Chem, 2021).
Values belong to the molecule of their own block, whether it stands above or below them. Active and inactive are the calls of the source. The calls are words filed in the database; no cut-off is given here.

Assays:
MCF7 [1] = assay: Antiproliferative activity against human MCF7 cells assessed as reduction in cell viability after 48 hrs by MTT assay; assay type: functional, cell-based; settings: MCF7, 48 h
MDA-MB-231 [2] = assay: Antiproliferative activity against human MDA-MB-231 cells assessed as reduction in cell viability after 48 hrs by MTT assay; assay type: functional, cell-based; settings: MDA-MB-231, 48 h
A549 = assay: Antiproliferative activity against human A549 cells assessed as reduction in cell viability after 48 hrs by MTT assay; assay type: functional, cell-based; settings: A549, 48 h
HT-29 = assay: Antiproliferative activity against human HT-29 cells assessed as reduction in cell viability after 48 hrs by MTT assay; assay type: functional, cell-based; settings: HT-29, 48 h
MDA-MB-231 [3] = assay: Potency index, ratio of hecogenin IC50 to test compound IC50 for antiproliferative activity against human MDA-MB-231 cells; assay type: functional
MCF7 [4] = assay: Potency index, ratio of hecogenin IC50 to test compound IC50 for antiproliferative activity against human MCF7 cells; assay type: functional
HUVEC = assay: Cytotoxicity against human HUVEC cells assessed as reduction in cell viability after 48 hrs by MTT assay; assay type: cell-based
MDA-MB-231 [5] = assay: Induction of apoptosis in human MDA-MB-231 cells assessed as increase in early apoptotic cells at 10 uM by annexin V-FITC/propidium iodide staining based flow cytometric analysis; assay type: functional, cell-based; settings: time 3-9 hrs, TDE = time-dependent effect
MDA-MB-231 [6] = assay: Induction of apoptosis in human MDA-MB-231 cells assessed as increase in late apoptotic cells at 10 uM by annexin V-FITC/propidium iodide staining based flow cytometric analysis; assay type: functional, cell-based; settings: time 3-9 hrs, TDE = time-dependent effect
MDA-MB-231 [7] = assay: Induction of apoptosis in human MDA-MB-231 cells assessed as viable cells at 10 uM after 3 hrs by annexin V-FITC/propidium iodide staining based flow cytometric analysis (reference value: 91.2%); assay type: functional; settings: read-out: Activity
MDA-MB-231 [8] = assay: Induction of apoptosis in human MDA-MB-231 cells assessed as viable cells at 10 uM after 6 hrs by annexin V-FITC/propidium iodide staining based flow cytometric analysis (reference value: 91.2%); assay type: functional; settings: read-out: Activity
MDA-MB-231 [9] = assay: Induction of apoptosis in human MDA-MB-231 cells assessed as viable cells at 10 uM after 9 hrs by annexin V-FITC/propidium iodide staining based flow cytometric analysis (reference value: 91.2%); assay type: functional; settings: read-out: Activity
MDA-MB-231 [10] = assay: Induction of apoptosis in human MDA-MB-231 cells assessed as early apoptotic cells at 10 uM after 3 hrs by annexin V-FITC/propidium iodide staining based flow cytometric analysis (reference value: 2.7%); assay type: functional
MDA-MB-231 [11] = assay: Induction of apoptosis in human MDA-MB-231 cells assessed as early apoptotic cells at 10 uM after 6 hrs by annexin V-FITC/propidium iodide staining based flow cytometric analysis (reference value: 2.7%); assay type: functional
MDA-MB-231 [12] = assay: Induction of apoptosis in human MDA-MB-231 cells assessed as early apoptotic cells at 10 uM after 9 hrs by annexin V-FITC/propidium iodide staining based flow cytometric analysis (reference value: 2.7%); assay type: functional
MDA-MB-231 [13] = assay: Induction of apoptosis in human MDA-MB-231 cells assessed as late apoptotic cells at 10 uM after 3 hrs by annexin V-FITC/propidium iodide staining based flow cytometric analysis (reference value: 3.1%); assay type: functional
MDA-MB-231 [14] = assay: Induction of apoptosis in human MDA-MB-231 cells assessed as late apoptotic cells at 10 uM after 6 hrs by annexin V-FITC/propidium iodide staining based flow cytometric analysis (reference value: 3.1%); assay type: functional
MDA-MB-231 [15] = assay: Induction of apoptosis in human MDA-MB-231 cells assessed as late apoptotic cells at 10 uM after 9 hrs by annexin V-FITC/propidium iodide staining based flow cytometric analysis (reference value: 3.1%); assay type: functional
MDA-MB-231 [16] = assay: Induction of apoptosis in human MDA-MB-231 cells assessed as necrotic cells at 10 uM after 3 hrs by annexin V-FITC/propidium iodide staining based flow cytometric analysis (reference value: 3%); assay type: functional
MDA-MB-231 [17] = assay: Induction of apoptosis in human MDA-MB-231 cells assessed as necrotic cells at 10 uM after 6 hrs by annexin V-FITC/propidium iodide staining based flow cytometric analysis (reference value: 3%); assay type: functional
MDA-MB-231 [18] = assay: Induction of apoptosis in human MDA-MB-231 cells assessed as necrotic cells at 10 uM after 9 hrs by annexin V-FITC/propidium iodide staining based flow cytometric analysis (reference value: 3%); assay type: functional
MDA-MB-231 [19] = assay: Induction of cell cycle arrest in human MDA-MB-231 cells assessed as accumulation at sub-G1 phase at 10 uM after 48 hrs by propidium iodide staining based flow cytometric analysis (reference value: 3.25%); assay type: functional
MDA-MB-231 [20] = assay: Induction of cell cycle arrest in human MDA-MB-231 cells assessed as accumulation at sub-G1 phase at 20 uM after 48 hrs by propidium iodide staining based flow cytometric analysis (reference value: 3.25%); assay type: functional
MDA-MB-231 [21] = assay: Induction of cell cycle arrest in human MDA-MB-231 cells assessed as accumulation at sub-G1 phase at 40 uM after 48 hrs by propidium iodide staining based flow cytometric analysis (reference value: 3.25%); assay type: functional
MCF7 [22] = assay: Induction of cell cycle arrest in human MCF7 cells assessed as accumulation at sub-G1 phase at 10 uM after 48 hrs by propidium iodide staining based flow cytometric analysis (reference value: 3.04%); assay type: functional
MCF7 [23] = assay: Induction of cell cycle arrest in human MCF7 cells assessed as accumulation at sub-G1 phase at 20 uM after 48 hrs by propidium iodide staining based flow cytometric analysis (reference value: 3.04%); assay type: functional
MCF7 [24] = assay: Induction of cell cycle arrest in human MCF7 cells assessed as accumulation at sub-G1 phase at 40 uM after 48 hrs by propidium iodide staining based flow cytometric analysis (reference value: 3.04%); assay type: functional
MCF7 [25] = assay: Induction of cell cycle arrest in human MCF7 cells assessed as accumulation at sub-G1 phase after 48 hrs by propidium iodide staining based flow cytometric analysis; assay type: functional; settings: dose 10-40 µM
MDA-MB-231 [26] = assay: Induction of cell cycle arrest in human MDA-MB-231 cells assessed as accumulation at sub-G1 phase after 48 hrs by propidium iodide staining based flow cytometric analysis; assay type: functional; settings: dose 10-40 µM
MDA-MB-231 [27] = assay: Inhibition of cell migration in human MDA-MB-231 cells at 20 uM after 20 hrs by inverted microscopic method; assay type: functional, cell-based
MDA-MB-231 [28] = assay: Antiinvasive activity against in human MDA-MB-231 cells at 20 uM after 24 hrs by matrigel coated transwell assay; assay type: functional, cell-based

Structure (SMILES): CC(=O)O[C@H]1CC[C@@]2(C)[C@@H](CC[C@@H]3[C@@H]2CC(=O)N[C@]2(C)C(/C(C)=N/NC(=S)Nc4ccc(C(F)(F)F)cc4)=CC[C@@H]32)C1
IC50 (MCF7 [1]): 22.7 µM | IC50 (MDA-MB-231 [2]): 25.4 µM | IC50 (A549): 36.3 µM | IC50 (HT-29): 34.1 µM

Structure (SMILES): CC(=O)O[C@H]1CC[C@@]2(C)[C@@H](CC[C@@H]3[C@@H]2CC(=O)N[C@]2(C)C(/C(C)=N/NC(=S)Nc4ccccc4)=CC[C@@H]32)C1
IC50 (MCF7 [1]): 19.1 µM | IC50 (MDA-MB-231 [2]): 25.9 µM | IC50 (A549): 35.1 µM | IC50 (HT-29): 34 µM

Structure (SMILES): CC(=O)O[C@H]1CC[C@@]2(C)[C@@H](CC[C@@H]3[C@@H]2CC(=O)N[C@]2(C)C(/C(C)=N/NC(=O)Nc4ccccc4)=CC[C@@H]32)C1
IC50 (MCF7 [1]): 35.8 µM | IC50 (MDA-MB-231 [2]): > 40 µM | IC50 (A549): > 40 µM | IC50 (HT-29): > 40 µM

Structure (SMILES): CC(=O)O[C@H]1CC[C@@]2(C)[C@@H](CC[C@H]3[C@@H]4CC=C(/C(C)=N/NC(=O)Nc5ccccc5)[C@@]4(C)C(=O)C[C@@H]32)C1
IC50 (MCF7 [1]): 11.6 µM | IC50 (MDA-MB-231 [2]): 15.5 µM | IC50 (A549): 22.7 µM | IC50 (HT-29): 17.6 µM

Structure (SMILES): CC(=O)O[C@H]1CC[C@@]2(C)[C@@H](CC[C@@H]3[C@@H]2CC(=O)N[C@]2(C)C(/C(C)=N/NC(N)=S)=CC[C@@H]32)C1
IC50 (MCF7 [1]): 15.1 µM | IC50 (MDA-MB-231 [2]): 16.6 µM | IC50 (A549): 28.9 µM | IC50 (HT-29): 27 µM

Structure (SMILES): CC(=O)O[C@H]1CC[C@@]2(C)[C@@H](CC[C@@H]3[C@@H]2CC(=O)N[C@]2(C)C(/C(C)=N/NC(N)=O)=CC[C@@H]32)C1
IC50 (MCF7 [1]): 17.4 µM | IC50 (MDA-MB-231 [2]): 19.2 µM | IC50 (A549): 29 µM | IC50 (HT-29): 28.5 µM

Structure (SMILES): CC(=O)O[C@H]1CC[C@@]2(C)[C@@H](CC[C@H]3[C@@H]4CC=C(/C(C)=N/NC(=S)Nc5ccccc5C)[C@@]4(C)C(=O)C[C@@H]32)C1
IC50 (MCF7 [1]): 7.08 µM | IC50 (MDA-MB-231 [2]): 14.1 µM | IC50 (A549): 17.1 µM | IC50 (HT-29): 13.2 µM

Structure (SMILES): C[C@@H]1CC[C@@]2(OC1)O[C@H]1C[C@H]3[C@@H]4CC[C@H]5C[C@@H](O)CC[C@]5(C)[C@H]4CC(=O)[C@]3(C)[C@H]1[C@@H]2C
IC50 (MCF7 [1]): 28.7 µM | IC50 (MDA-MB-231 [2]): 31.2 µM | IC50 (A549): > 40 µM | IC50 (HT-29): > 40 µM | IC50 (HUVEC): > 100 µM

Structure (SMILES): CC(=O)O[C@H]1CC[C@@]2(C)[C@@H](CC[C@@H]3[C@@H]2CC(=O)N[C@]2(C)C(/C(C)=N/NC(=S)Nc4ccccc4C)=CC[C@@H]32)C1
IC50 (MCF7 [1]): 29.6 µM | IC50 (MDA-MB-231 [2]): > 40 µM | IC50 (A549): > 40 µM | IC50 (HT-29): 37.5 µM

Now those with a lower IC50 (MCF7 [1]), led by results:

IC50 (MCF7 [1]): 2.16 µM | IC50 (MDA-MB-231 [2]): 10.4 µM | IC50 (A549): 7.68 µM | IC50 (HT-29): 10.6 µM
Structure (SMILES): CC(=O)O[C@H]1CC[C@@]2(C)[C@@H](CC[C@H]3[C@@H]4CC=C(/C(C)=N/NC(=S)Nc5ccccc5)[C@@]4(C)C(=O)C[C@@H]32)C1
Ratio IC50 (MDA-MB-231 [3]): >10 | Ratio IC50 (MCF7 [4]): >10

IC50 (MCF7 [1]): 1.74 µM | IC50 (MDA-MB-231 [2]): 5.89 µM | IC50 (A549): 6.84 µM | IC50 (HT-29): 7.69 µM
Structure (SMILES): CC(=O)O[C@H]1CC[C@@]2(C)[C@@H](CC[C@H]3[C@@H]4CC=C(/C(C)=N/NC(N)=O)[C@@]4(C)C(=O)C[C@@H]32)C1
IC50 (HUVEC): > 100 µM | Ratio IC50 (MDA-MB-231 [3]): >10 | Ratio IC50 (MCF7 [4]): >10

IC50 (MCF7 [1]): 6.86 µM | IC50 (MDA-MB-231 [2]): 11.8 µM | IC50 (A549): 9.75 µM | IC50 (HT-29): 11.3 µM
Structure (SMILES): CC(=O)O[C@H]1CC[C@@]2(C)[C@@H](CC[C@H]3[C@@H]4CC=C(/C(C)=N/NC(=S)Nc5ccc(C(F)(F)F)cc5)[C@@]4(C)C(=O)C[C@@H]32)C1

IC50 (MCF7 [1]): 1.59 µM | IC50 (MDA-MB-231 [2]): 2.67 µM | IC50 (A549): 5.44 µM | IC50 (HT-29): 6.72 µM
Structure (SMILES): CC(=O)O[C@H]1CC[C@@]2(C)[C@@H](CC[C@H]3[C@@H]4CC=C(/C(C)=N/NC(N)=S)[C@@]4(C)C(=O)C[C@@H]32)C1
IC50 (HUVEC): > 100 µM | Activity (MDA-MB-231 [5]): Tde | Activity (MDA-MB-231 [6]): Tde | viability at 10 µM (MDA-MB-231 [7]): 77.4% | viability at 10 µM (MDA-MB-231 [8]): 74.1% | viability at 10 µM (MDA-MB-231 [9]): 68.8% | Activity (MDA-MB-231 [10]): 5.9% | Activity (MDA-MB-231 [11]): 6.3% | Activity (MDA-MB-231 [12]): 7.8% | Activity (MDA-MB-231 [13]): 9.5% | Activity (MDA-MB-231 [14]): 12.1% | Activity (MDA-MB-231 [15]): 15.2% | Activity (MDA-MB-231 [16]): 7.2% | Activity (MDA-MB-231 [17]): 7.5% | Activity (MDA-MB-231 [18]): 8.2% | Activity (MDA-MB-231 [19]): 14.82% | Activity (MDA-MB-231 [20]): 39.79% | Activity (MDA-MB-231 [21]): 54.95% | Activity (MCF7 [22]): 25.52% | Activity (MCF7 [23]): 44.95% | Activity (MCF7 [24]): 67.72% | Activity (MCF7 [25]): Dose-dependent effect | Activity (MDA-MB-231 [26]): Dose-dependent effect | inhibition (MDA-MB-231 [27]): Active | Activity (MDA-MB-231 [28]): Active | Ratio IC50 (MDA-MB-231 [3]): >10 | Ratio IC50 (MCF7 [4]): >10
